The target in one data set is T1, Sirt2 (Homo sapiens, UniProt Q8IXJ6).
T1 construct: comprising amino acids 50–389 (C-terminal); His-tag (N); purchased Reaction Biology Corporation (Malvern, PA, USA), in-house enzyme of the contract laboratory; host or cells: E. coli
T1 sequence (Q8IXJ6 50-389): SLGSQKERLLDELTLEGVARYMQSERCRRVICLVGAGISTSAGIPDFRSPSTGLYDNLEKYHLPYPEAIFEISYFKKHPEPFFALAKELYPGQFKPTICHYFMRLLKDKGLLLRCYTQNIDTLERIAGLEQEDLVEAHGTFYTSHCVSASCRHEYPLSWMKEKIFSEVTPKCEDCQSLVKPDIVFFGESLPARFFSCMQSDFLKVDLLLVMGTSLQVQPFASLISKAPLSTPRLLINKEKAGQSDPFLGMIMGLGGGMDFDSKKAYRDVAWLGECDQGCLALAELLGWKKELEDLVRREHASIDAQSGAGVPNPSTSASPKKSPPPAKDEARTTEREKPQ
The data set can be described thus: Fluorescence-based Sirt2 deacetylase inhibition assay (Reaction Biology). The data set is classed as biochemical. Particulars: for IC50: fluorescence-based assay. Here is the method: The determination of the inhibitory potency and corresponding subtype selectivity of the synthesized hybrid candidates was performed by Reaction Biology Cooperation (Malvern, PA, USA) using a fluorescence-based assay (Table 1).
Sirtuin assays. The biological activity of the test substances against the respective sirtuin enzymes was evaluated by means of a fluorescence-based assay performed by Reaction Biology Corporation (Malvern, PA, USA). The sirtuin enzymes used in the assays were all obtained from in-house sources at Reaction Biology Corporation (Malvern, PA, USA). […] Sirt2 is provided in a buffer containing 50 mM Tris/HCl (pH 7.5), 500 mM NaCl, 1 mM TCEP, and 10% glycerol (v/v). […] Sirt3 is supplied in 50 mM Tris/HCl (pH 7.5), 500 mM NaCl, and 10% glycerol (v/v). […] All proteins were provided in purified forms for use in the assays. […] After 2 h of incubation at 30 °C, the universal inhibitor nicotinamide was added in excess to completely stop the deacetylation reaction, followed by the addition of a protease-based developer to release 7-amino-4-methylcoumarin, resulting in characteristic fluorescence, which was measured after 1 h at 30 °C (excitation/emission = 360/460). A no-inhibitor control was implemented, serving as a reference for 100% enzyme activity. […] Three individual IC50 values per test compound were calculated from the corresponding three dilution series fluorescence data using sigmoidal curve fitting in Prism 8.0.2 (GraphPad Software, Boston, MA, USA), and these were averaged to determine the mean IC50 value along with the standard deviation. To assess the selectivity against Sirt1, Sirt3, and Sirt5, a 50 µM concentration of the test compound was tested in duplicate, and the inhibitory activity was expressed as the mean of the duplicates in percentage of enzyme activity, including standard deviation, relative to the no-inhibitor control (representative 100% enzyme activity).

For another data set, the system named is HL-60 cells. The data set can be described thus: MTT-based cell viability assay. Details: species or system human. The protocol:
The SirReal-based Sirt2 inhibitors (FM345, FM352, FM358, FM368, RW-93, RW-95 and RW-99) were tested for potential acute cytotoxicity to human cells in an MTT-based cell viability assay. […] HL-60 cells were treated with the corresponding Sirt2 inhibitors at various concentrations and then incubated for 24 h. […] Representative cell viability results following treatment with RW-93 are shown in Figure S1 of the Supplementary Materials.
Cell viability assay. The cytotoxicity of the Sirt2 inhibitors was determined using a colorimetric MTT assay following Mosmann’s protocol. HL-60 cells (purchased from DSMZ (German Collection of Microorganisms and Cell Cultures, Deutsche Sammlung von Mikroorganismen und Zellkulturen GmbH, Braunschweig, Germany) were cultivated in RPMI medium with 10% fetal bovine serum at 37 °C with 5% CO2 atmosphere. The cells were then seeded in a 96-well plate with a concentration of 9 x 10^4 cells/well and a well volume of 99 µL. The cells were further incubated at 37 °C with 5% CO2 atmosphere for 24 h. The cells were then treated with 1 µL solution of Sirt2 inhibitors in various concentrations, which were prepared from 10 mM or 20 mM DMSO stock solutions. Negative controls were treated with 1 µL DMSO and positive controls with 1 µL of 1% Triton-X solution. Three technical replicates were performed. After incubation for 24 h, 10 µL MTT (5.0 mg/mL in PBS) were added to each well and the cells were incubated at 37 °C with 5% CO2 atmosphere for 2 h. Then 190 µL DMSO were added to each well and the plate shaken at room temperature at 600 rpm for 1 h with light exclusion. The absorbance of the MTT metabolite formazan was measured at 570 nm using the MRX Microplate Reader (Dynex Technologies, Chantilly, VA, USA). The means of the corresponding triplicates were calculated and set in relation to the 1% DMSO negative controls. The data was processed using Prism 8.0.2 (GraphPad Software, Boston, MA, USA) software and a logarithmic sigmoidal curve fitting for the calculation of the respective IC50 values was performed.

Setting [1] is: rounded values, read-out: IC50 Sirt2.
Setting [2] is: mean ± SD of three dilution series, read-out: IC50 [µM] ± SD Sirt2.

Molecules are shown by their SMILES. Where two headings read alike, the source gives them in different places.

For the compound `Cc1cc(C)nc(SCC(=O)Nc2ncc(COc3ccc(NC(=O)c4cnn(C)c4)c(I)c3)s2)n1` [RW-95, N-(4-((2-(2-((4,6-Dimethylpyrimidin-2-yl)thio)acetamido)thiazol-5-yl)methoxy)-2-iodophenyl)-1-methyl-1H-pyrazole-4-carboxamide], the half-maximal inhibitory concentration (IC50) at Sirt2 (setting [1]) stood at 0.049 µM; at Sirt2 (setting [2]), 0.0485 ± 0.0056 µM.

For `Cc1cc(C)nc(SCC(=O)Nc2ncc(COc3ccccc3)s2)n1` [FM345, 2-((4,6-Dimethylpyrimidin-2-yl)thio)-N-(5-(phenoxymethyl)thiazol-2-yl)acetamide], the 50% inhibitory concentration (IC50) amounted to 5.3 µM at Sirt2 (setting [1]) and 5.29 ± 0.73 µM at Sirt2 (setting [2]).

Take `Cc1cc(C)nc(SCC(=O)Nc2ncc(COc3cccc4ccccc34)s2)n1` [FM368, 2-((4,6-Dimethylpyrimidin-2-yl)thio)-N-(5-((naphthalen-1-yloxy)methyl)thiazol-2-yl)acetamide]: the IC50 at Sirt2 (setting [1]) was found to be 6.5 µM; at Sirt2 (setting [2]) it was 6.51 ± 0.84 µM.

Regarding `Cc1cc(C)nc(SCC(=O)Nc2ncc(COc3ccc(NC(=O)c4cnn(C)c4)cc3)s2)n1` [FM358, N-(4-((2-(2-((4,6-Dimethylpyrimidin-2-yl)thio)acetamido)thiazol-5-yl)methoxy)-phenyl)-1-methyl-1H-pyrazole-4-carboxamide], the IC50 was found to be 0.066 µM at Sirt2 (setting [1]) and 0.0656 ± 0.0044 µM at Sirt2 (setting [2]). On Sirt2 (ratio of Sirt2 IC50 values), the “stronger Sirt2 inhibition compared to lead compound Yang_24a (fold)” value came out at 1.2.

As to `Cc1cc(C)nc(SCC(=O)Nc2ncc(COc3ccc(NC(=O)c4cccs4)cc3)s2)n1` [FM352, N-(4-((2-(2-((4,6-Dimethylpyrimidin-2-yl)thio)acetamido)thiazol-5-yl)methoxy)phenyl)thiophene-2-carboxamide], the IC50 on Sirt2 (setting [1]) came out at 0.094 µM; at Sirt2 (setting [2]), 0.0935 ± 0.0064 µM.

Regarding `Cc1cc(C)nc(SCC(=O)Nc2ncc(COc3ccc(NC(=O)c4cnn(C)c4)c(Br)c3)s2)n1` [RW-93, N-(2-Bromo-4-((2-(2-((4,6-dimethylpyrimidin-2-yl)thio)acetamido)thiazol-5-yl)-methoxy)phenyl)-1-methyl-1H-pyrazole-4-carboxamide], the “selectivity towards related subtypes Sirt1, Sirt3 and Sirt5” value on Sirt2 (Sirt2 versus Sirt1, Sirt3, Sirt5) is reported as “more than 3000 fold”. On Sirt2 (setting [1]), the IC50 was 0.016 µM. At Sirt2 (setting [2]), the half-maximal inhibitory concentration (IC50) amounted to 0.0155 ± 0.0007 µM. For the same compound, on Sirt2 (ratio of Sirt2 IC50 values), the “outperforms lead compound SirReal2 by a factor” value was found to be 15, the “stronger Sirt2 inhibition compared to lead compound Yang_24a (fold)” value turned out to be 5 and the “times more potent than hybrid precursor FM358” value is given as “more than 4”. Besides, the “changes in cell viability relative to DMSO control” value with HL-60 cells (HL-60 cells, MTT, up to 200 µM, three technical replicates) was “No signiﬁcant changes”. Also, in the data set with HL-60 cells (MTT assay), the “acute toxicity to human cells” value is “ruled out”.

One may read the IC50 as the concentration that gives 50% inhibition.

For the origin of these results see paper PMC12563821 (International Journal of Molecular Sciences, 2025).
